For this assay, the target named is HPK1 kinase (Homo sapiens, UniProt Q92918). Description: HPK1 kinase inhibition assay, ADP-Glo platform. It counts as biochemical. The settings on record: 0.3 nM HPK1, 5 μM ATP, 0.05 mg/mL MBP. As to the method: The compounds to be tested were each dissolved in 100% DMSO, with the mother liquor concentration being 10 mM. The liquor was 3-fold diluted at a test starting concentration of 10 μM to yield ten data points, with two replicates set for each point.
The inhibition of the activity of HPK1 kinase by the compound was assayed using an ADP-Glo™ platform. The reaction was performed in a 384-well plate containing 0.3 nM HPK1, 5 μM ATP, 0.05 mg/mL MBP, 0-10 μM compound, and 1% DMSO per well. The reaction buffer was as follows: 50 mM HEPES, 10 mM MgCl2, 1 mM EGTA, 1 mM DTT, 0.01% Brij 35, pH=7.5. The compound and the kinase were incubated at 25° C. for 15 min, and a substrate and ATP were added to initiate the reaction. After 1 h of reaction at 25° C., the ADP-Glo™ reagent was added, and the reaction was terminated, followed by incubation at 25° C. for 1 h. The kinase detection reagent was added, and after 1 h of incubation at 25° C., the chemiluminescence signal was detected. Based on this reading, inhibition percentage was calculated, and IC50 for the compound was calculated using four-parameter fitting.

33 compounds from patent US20240294518A1, “NITROGEN-CONTAINING HETEROCYCLIC COMPOUND” (Evopoint Biosciences Co., Ltd., priority 2021, published 2024) can be followed below.

SMILES strings stand for the structures. pIC50: −log10 of the molar value.

Sequence of HPK1 kinase (Q92918 whole entry): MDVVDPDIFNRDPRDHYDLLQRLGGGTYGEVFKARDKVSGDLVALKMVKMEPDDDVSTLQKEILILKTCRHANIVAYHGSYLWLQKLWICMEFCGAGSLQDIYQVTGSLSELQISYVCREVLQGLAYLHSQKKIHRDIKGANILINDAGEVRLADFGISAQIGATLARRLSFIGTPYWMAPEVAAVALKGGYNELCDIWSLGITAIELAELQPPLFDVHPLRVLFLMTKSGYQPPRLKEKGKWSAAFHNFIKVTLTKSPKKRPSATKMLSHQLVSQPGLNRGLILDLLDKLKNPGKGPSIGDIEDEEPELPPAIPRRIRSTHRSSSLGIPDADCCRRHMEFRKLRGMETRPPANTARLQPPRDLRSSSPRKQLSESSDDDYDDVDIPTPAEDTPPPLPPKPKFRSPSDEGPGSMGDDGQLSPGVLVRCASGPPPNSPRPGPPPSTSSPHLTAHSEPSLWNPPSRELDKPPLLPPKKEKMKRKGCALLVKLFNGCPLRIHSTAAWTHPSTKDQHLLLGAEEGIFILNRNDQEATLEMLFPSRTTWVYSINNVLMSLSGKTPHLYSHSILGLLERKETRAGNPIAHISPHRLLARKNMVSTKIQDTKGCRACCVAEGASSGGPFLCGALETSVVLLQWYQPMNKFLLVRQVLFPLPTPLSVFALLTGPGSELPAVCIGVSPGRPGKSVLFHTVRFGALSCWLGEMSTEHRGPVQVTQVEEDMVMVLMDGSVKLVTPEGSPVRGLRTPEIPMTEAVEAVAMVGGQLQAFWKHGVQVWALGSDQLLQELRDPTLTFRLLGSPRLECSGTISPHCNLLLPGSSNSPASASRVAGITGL

Consider `Cc1cc(-c2cnc3[nH]cc(C)c3c2)cc(C2COCCN2)c1C1=CCOCC1` (stereo not drawn) [Compound A-12], for which the pIC50 was 8.30 to 11.00.
In turn, `Clc1c[nH]c2ncc(-c3ccc(C4CCOCC4)c([C@H]4COCCN4)n3)cc12` [Compound A-19] showed a pIC50 of 7.00 to 8.00.
Under `C[C@H]1CCCN1Cc1nc(-c2cnc3[nH]cc(C4CC4)c3c2)ccc1C1CCOCC1` [Compound A-24] stands 8.00 to 8.30; under `Cc1c[nH]c2ncc(-c3ccc(C4CCOCC4)c(CN4CCCC4)n3)cc12` [Compound A-26], 7.00 to 8.00.
With `Cc1c[nH]c2ncc(-c3cc(O)c(C4CCOCC4)c(C4COCCN4)c3)cc12` (stereo not drawn) [Compound A-39], the pIC50 is 8.30 to 11.00.
In turn, `CN(C)Cc1nc(-c2cnc3[nH]cc(C(F)(F)F)c3c2)ccc1C1CCOCC1` [Compound A-28] gave a pIC50 of 7.00 to 8.00.
Compound `Cc1cc(-c2cnc3[nH]cc(C(F)(F)F)c3c2)nc(C2COCCN2)c1C1CCOCC1` (stereo not drawn) [Compound A-27] showed a pIC50 of 8.30 to 11.00.
As for `C[C@@H]1CCCN1Cc1nc(-c2cnc3[nH]cc(C4CC4)c3c2)ccc1C1CCOCC1` [Compound A-25], the pIC50 is 8.30 to 11.00.
`Cc1c[nH]c2ncc(-c3ccc(C4CCOCC4)c(C4COCCN4)n3)c(F)c12` (stereo not drawn) [Compound A-7] had a pIC50 of 7.00 to 8.00.
In the case of `Cc1c[nH]c2ncc(-c3cc(C4COCCN4)c(C4CCOCC4)cc3Cl)cc12` (stereo not drawn) [Compound A-8], the pIC50 is 7.00 to 8.00.
In the case of `c1nc2[nH]cc(C3CC3)c2cc1-c1ccc(C2CCOCC2)c([C@H]2COCCN2)n1` [Compound A-16] it was 7.00 to 8.00; in that of `FC(F)(F)c1c[nH]c2ncc(-c3ccc(C4CCOCC4)c([C@@H]4COCCN4)n3)cc12` [Compound A-18], 8.30 to 11.00; in that of `c1nc2[nH]cc(C3CC3)c2cc1-c1ccc(C2CCOCC2)c([C@@H]2COCCN2)n1` [Compound A-15], 8.30 to 11.00.
`Cc1c[nH]c2ncc(-c3ccc(C4CCOCC4)c(C4COCCN4)c3F)cc12` (stereo not drawn) [Compound A-10] showed a pIC50 of 7.00 to 8.00.
In the case of `FC(F)(F)C1(c2c[nH]c3ncc(-c4ccc(C5CCOCC5)c([C@@H]5COCCN5)n4)cc23)CC1` [Compound A-30] it was 8.30 to 11.00.
Compound `FC(F)(F)c1c[nH]c2ncc(-c3ccc(C4CCOCC4)c(CN4CCCC4)n3)cc12` [Compound A-23] had a pIC50 of 8.00 to 8.30.
In the case of `Clc1c[nH]c2ncc(-c3ccc(C4CCOCC4)c([C@@H]4COCCN4)n3)cc12` [Compound A-20], the pIC50 was 8.30 to 11.00.
`Cc1c[nH]c2ncc(-c3cc(Cl)c(C4=CCOCC4)c(C4COCCN4)c3)cc12` (stereo not drawn) [Compound A-13] gave a pIC50 of 8.00 to 8.30.
Compound `Cc1c[nH]c2ncc(-c3cc(Cl)c(C4CCOCC4)c(C4COCCN4)c3)cc12` (stereo not drawn) [Compound A-6] had a pIC50 of 8.30 to 11.00.
On to `Cc1c[nH]c2ncc(-c3cc(C4COCCN4)c(C4CCOCC4)cc3F)cc12` (stereo not drawn) [Compound A-11], for which the pIC50 was 7.00 to 8.00.
Compound `COC(=O)c1c[nH]c2ncc(-c3ccc(C4CCOCC4)c(C4COCCN4)n3)cc12` (stereo not drawn) [Compound A-29] showed a negative-log IC50 (pIC50) of 8.30 to 11.00.
`Cc1cc(-c2cnc3[nH]cc(C(F)(F)F)c3c2)cc([C@H]2COCCN2)c1C1CCOCC1` [Compound A-32] showed a pIC50 of 8.00 to 8.30.
Consider `Cc1cc(-c2cnc3[nH]cc(C(F)(F)F)c3c2)cc([C@@H]2COCCN2)c1C1CCOCC1` [Compound A-33], for which the pIC50 is 8.30 to 11.00.
For the compound `c1nc2[nH]cc(C3CC3)c2cc1-c1ccc(C2CCOCC2)c(CN2CCCC2)n1` [Compound A-22], the pIC50 was 8.30 to 11.00.
With `Cc1cc(-c2cnc3[nH]cc(C)c3c2)cc(C2COCCN2)c1C1CCOCC1` (stereo not drawn) [Compound A-5], the pIC50 was 8.30 to 11.00.
As to `Cc1c[nH]c2ncc(-c3ccc(C4CCOCC4)c(C4COCCN4)c3)c(F)c12` (stereo not drawn) [Compound A-3], the pIC50 was 8.00 to 8.30.
Consider `OCc1c[nH]c2ncc(-c3ccc(C4CCOCC4)c(C4COCCN4)n3)cc12` (stereo not drawn) [Compound A-21], for which the pIC50 was 8.00 to 8.30.
In turn, `COc1cc(-c2cnc3[nH]cc(C)c3c2)cc([C@@H]2COCCN2)c1C1CCOCC1` [Compound A-38] showed a pIC50 of 8.30 to 11.00.
With `COc1cc(-c2cnc3[nH]cc(C)c3c2)cc(C2COCCN2)c1C1CCOCC1` (stereo not drawn) [Compound A-9], the pIC50 is 8.00 to 8.30.
Compound `COc1cc(-c2cnc3[nH]cc(C(F)(F)F)c3c2)cc([C@@H]2COCCN2)c1C1CCOCC1` [Compound A-34] had a pIC50 of 8.30 to 11.00.
The compound `COc1cc(-c2cnc3[nH]cc(C(F)(F)F)c3c2)cc([C@H]2COCCN2)c1C1CCOCC1` [Compound A-35] showed a pIC50 of 7.00 to 8.00.
`Cc1cc(-c2cnc3[nH]cc(C)c3c2)cc([C@@H]2COCCN2)c1C1CCOCC1` [Compound A-36] gave a pIC50 of 8.30 to 11.00.
The compound `CN(C)C(=O)C#Cc1c[nH]c2ncc(-c3ccc(C4CCOCC4)c(C4COCCN4)c3)cc12` (single isomer, unassigned) [Compound A-14] gave a pIC50 of 8.30 to 11.00.
